Key:
Format in all cases: in vivo
[1] = test system: giant foxtail (Setaria faberii); test: Test B pre-/postemergence plant response
Method in brief: (§1)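 Visually scored on a 0 to 100 scale after 13 to 15 days in greenhouse versus controls. Treatments were preemergence on seeded loam/sand soil and postemergence on 1- to 4-leaf plants.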

[2] = test system: green foxtail (Setaria viridis); test: Test B pre-/postemergence plant response
Method in brief: as §1

[3] = test system: cocklebur (Xanthium strumarium); test: Test B pre-/postemergence plant response
Method in brief: as §1

[4] = test system: blackgrass (Alopecurus myosuroides); test: Test B pre-/postemergence plant response
Method in brief: as §1

[5] = test system: wild oat (Avena fatua); test: Test B pre-/postemergence plant response
Method in brief: as §1

[6] = test system: bermudagrass (Cynodon dactylon); test: Test B pre-/postemergence plant response
Method in brief: as §1

[7] = test system: morningglory (Ipomoea coccinea); test: Test B pre-/postemergence plant response
Method in brief: as §1

[8] = test system: kochia (Kochia scoparia); test: Test B pre-/postemergence plant response
Method in brief: as §1

[9] = test system: ragweed (common ragweed, Ambrosia elatior); test: Test B pre-/postemergence plant response
Method in brief: as §1

[10] = test system: johnsongrass (Sorghum halepense); test: Test B pre-/postemergence plant response
Method in brief: as §1

[11] = test system: velvetleaf (Abutilon theophrasti); test: Test B pre-/postemergence plant response
Method in brief: as §1

[12] = test system: downy bromegrass (Bromus tectorum); test: Test B pre-/postemergence plant response
Method in brief: as §1

[13] = test system: yellow nutsedge (Cyperus esculentus); test: Test B pre-/postemergence plant response
Method in brief: as §1

[14] = test system: soybean (Glycine max); test: Test B pre-/postemergence plant response
Method in brief: as §1

[15] = test system: wheat (Triticum aestivum); test: Test B pre-/postemergence plant response
Method in brief: as §1

[16] = test system: chickweed (Stellaria media); test: Test B postemergence plant response
Method in brief: (§2)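 Visual ratings from 0 (no effect) to 100 (complete control), made against controls 13–15 days after treatment, kept in a greenhouse. Compounds were applied postemergence to potted plants at the 1- to 4-leaf stage (2–18 cm).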

[17] = test system: windgrass (Apera spica-venti); test: Test B postemergence plant response
Method in brief: as §2

[18] = test system: canarygrass (Phalaris minor); test: Test B postemergence plant response
Method in brief: as §2

[19] = 31 g ai/ha, postemergence, scale 0 to 100, 0 is no effect, 100 is complete control
[20] = 250 g ai/ha, Preemergence, 0 to 100 scale
[21] = Postemergence, 62 g ai/ha, scale 0 (no effect) to 100 (complete control), 13 to 15 days
[22] = Postemergence, 125 g ai/ha, visual rating after 13 to 15 days, scale 0 (no effect) to 100 (complete control)
[23] = Postemergence, 250 g ai/ha, scale 0 to 100 (0 no effect, 100 complete control)
[24] = Preemergence, 31 g ai/ha, scale 0 to 100 (0 no effect, 100 complete control)
[25] = Preemergence, 62 g ai/ha, scale 0 to 100, 0 no effect, 100 complete control
[26] = Preemergence, 125 g ai/ha, 0 to 100 scale
[27] = Postemergence, 31 g ai/ha, 0 to 100 scale (0 no effect, 100 complete control)
[28] = Postemergence, 125 g ai/ha, scale 0 to 100 (0 no effect, 100 complete control)
[29] = Postemergence, 250 g ai/ha, scale 0 to 100 (0 no effect, 100 complete control), 13 to 15 days
[30] = 62 g ai/ha, postemergence, 0 is no effect, 100 is complete control, 13 to 15 days

## CCCn1c(-c2ccccc2)ncc(C(=O)C2=C(O)CCCC2=O)c1=O [Compound 50]
[1]; [19]
  Plant response rating, Foxtail, Giant: 75
[1]; [20]
  Plant response rating, Foxtail, Giant: 90
[1]; [21]
  Plant response rating, Foxtail, Giant: 85
[1]; [22]
  Plant response rating, Foxtail, Giant: 95
[1]; [23]
  Plant response rating, Foxtail, Giant: 95
[1]; [24]
  Plant response rating, Foxtail, Giant: 45
[1]; [25]
  Plant response rating, Foxtail, Giant: 75
[1]; [26]
  Foxtail, Giant plant response rating: 90
[2]; [19]
  Plant response rating, Foxtail, Green: 80
[2]; [20]
  Plant response rating, Foxtail, Green: 100
[2]; [21]
  Plant response rating, Foxtail, Green: 80
[2]; [22]
  Plant response rating, Foxtail, Green: 95
[2]; [23]
  Plant response rating, Foxtail, Green: 95
[2]; [24]
  Plant response rating, Foxtail, Green: 50
[2]; [25]
  Plant response rating, Foxtail, Green: 50
[2]; [26]
  Foxtail, Green plant response rating: 95
[3]; [19]
  Plant response rating, Cocklebur: 85
[3]; [21]
  Plant response rating, Cocklebur: 85
[3]; [22]
  Plant response rating, Cocklebur: 90
[3]; [23]
  Plant response rating, Cocklebur: 90
[3]; [25]
  Plant response rating, Cocklebur: 75
[3]; [26]
  Cocklebur plant response rating: 75
[4]; [19]
  Plant response rating, Blackgrass: 5
[4]; [20]
  Plant response rating, Blackgrass: 5
[4]; [21]
  Plant response rating, Blackgrass: 5
[4]; [22]
  Plant response rating, Blackgrass: 5
[4]; [23]
  Plant response rating, Blackgrass: 15
[4]; [24]
  Plant response rating, Blackgrass: 0
[4]; [25]
  Plant response rating, Blackgrass: 0
[4]; [26]
  Blackgrass plant response rating: 0
[5]; [19]
  Plant response rating, Oat, Wild: 5
[5]; [20]
  Plant response rating, Oat, Wild: 0
[5]; [21]
  Plant response rating, Oat, Wild: 5
[5]; [22]
  Plant response rating, Oat, Wild: 10
[5]; [23]
  Plant response rating, Oat, Wild: 30
[5]; [24]
  Plant response rating, Oat, Wild: 0
[5]; [26]
  Oat, Wild plant response rating: 0
[6]; [19]
  Plant response rating, Bermudagrass: 90
[6]; [20]
  Plant response rating, Bermudagrass: 100
[6]; [21]
  Plant response rating, Bermudagrass: 100
[6]; [22]
  Plant response rating, Bermudagrass: 100
[6]; [23]
  Plant response rating, Bermudagrass: 100
[6]; [24]
  Plant response rating, Bermudagrass: 100
[6]; [25]
  Plant response rating, Bermudagrass: 100
[6]; [26]
  Bermudagrass plant response rating: 100
[7]; [19]
  Plant response rating, Morningglory: 10
[7]; [20]
  Plant response rating, Morningglory: 55
[7]; [21]
  Plant response rating, Morningglory: 25
[7]; [22]
  Plant response rating, Morningglory: 70
[7]; [23]
  Plant response rating, Morningglory: 80
[7]; [24]
  Plant response rating, Morningglory: 0
[7]; [25]
  Plant response rating, Morningglory: 0
[8]; [19]
  Plant response rating, Kochia: 95
[8]; [21]
  Plant response rating, Kochia: 100
[8]; [22]
  Plant response rating, Kochia: 100
[8]; [23]
  Plant response rating, Kochia: 100
[9]; [19]
  Plant response rating, Ragweed: 80
[9]; [20]
  Plant response rating, Ragweed: 100
[9]; [21]
  Plant response rating, Ragweed: 90
[9]; [22]
  Plant response rating, Ragweed: 98
[9]; [23]
  Plant response rating, Ragweed: 98
[9]; [24]
  Plant response rating, Ragweed: 75
[9]; [26]
  Ragweed plant response rating: 95
[10]; [19]
  Plant response rating, Johnsongrass: 0
[10]; [20]
  Plant response rating, Johnsongrass: 95
[10]; [21]
  Plant response rating, Johnsongrass: 10
[10]; [22]
  Plant response rating, Johnsongrass: 65
[10]; [23]
  Plant response rating, Johnsongrass: 70
[10]; [24]
  Plant response rating, Johnsongrass: 0
[10]; [25]
  Plant response rating, Johnsongrass: 20
[10]; [26]
  Johnsongrass plant response rating: 90
[11]; [19]
  Plant response rating, Velvetleaf: 90
[11]; [20]
  Plant response rating, Velvetleaf: 100
[11]; [21]
  Plant response rating, Velvetleaf: 98
[11]; [22]
  Plant response rating, Velvetleaf: 98
[11]; [23]
  Plant response rating, Velvetleaf: 100
[11]; [24]
  Plant response rating, Velvetleaf: 85
[11]; [26]
  Velvetleaf plant response rating: 100
[12]; [19]
  Plant response rating, Bromegrass, Downy: 0
[12]; [20]
  Plant response rating, Bromegrass, Downy: 0
[12]; [21]
  Plant response rating, Bromegrass, Downy: 5
[12]; [22]
  Plant response rating, Bromegrass, Downy: 20
[12]; [23]
  Plant response rating, Bromegrass, Downy: 20
[12]; [24]
  Plant response rating, Bromegrass, Downy: 0
[12]; [25]
  Plant response rating, Bromegrass, Downy: 0
[12]; [26]
  Bromegrass, Downy plant response rating: 0
[13]; [19]
  Plant response rating, Nutsedge, Yellow: 70
[13]; [20]
  Plant response rating, Nutsedge, Yellow: 90
[13]; [21]
  Plant response rating, Nutsedge, Yellow: 70
[13]; [22]
  Plant response rating, Nutsedge, Yellow: 70
[13]; [23]
  Plant response rating, Nutsedge, Yellow: 75
[13]; [24]
  Plant response rating, Nutsedge, Yellow: 80
[13]; [26]
  Nutsedge, Yellow plant response rating: 90
[14]; [19]
  Plant response rating, Soybean: 85
[14]; [20]
  Plant response rating, Soybean: 0
[14]; [21]
  Plant response rating, Soybean: 85
[14]; [22]
  Plant response rating, Soybean: 95
[14]; [23]
  Plant response rating, Soybean: 95
[14]; [24]
  Plant response rating, Soybean: 0
[15]; [19]
  Plant response rating, Wheat: 0
[15]; [20]
  Plant response rating, Wheat: 0
[15]; [21]
  Plant response rating, Wheat: 5
[15]; [22]
  Plant response rating, Wheat: 5
[15]; [23]
  Plant response rating, Wheat: 15
[15]; [24]
  Plant response rating, Wheat: 0
[15]; [26]
  Wheat plant response rating: 0
[16]; [19]
  Plant response rating, Chickweed: 80
[16]; [21]
  Plant response rating, Chickweed: 80
[16]; [22]
  Plant response rating, Chickweed: 98
[16]; [23]
  Plant response rating, Chickweed: 98
[17]; [19]
  Plant response rating, Windgrass: 10
[17]; [21]
  Plant response rating, Windgrass: 50
[17]; [22]
  Plant response rating, Windgrass: 60
[17]; [23]
  Plant response rating, Windgrass: 80
[18]; [19]
  Plant response rating, Canarygrass: 0
[18]; [21]
  Plant response rating, Canarygrass: 0
[18]; [22]
  Plant response rating, Canarygrass: 5
[18]; [23]
  Plant response rating, Canarygrass: 5

## Cc1ccc(-n2c(-c3cc(F)cc(F)c3)ncc(C(=O)C3=C(O)CCCC3=O)c2=O)cc1 [Compound 162]
[1]; [27]
  Plant response rating, Foxtail, Giant: 85
[1]; [28]
  Plant response rating, Foxtail, Giant: 98
[1]; [29]
  Plant response rating, Foxtail, Giant: 98
[2]; [27]
  Plant response rating, Foxtail, Green: 98
[2]; [28]
  Plant response rating, Foxtail, Green: 98
[2]; [29]
  Plant response rating, Foxtail, Green: 100
[3]; [27]
  Plant response rating, Cocklebur: 100
[3]; [28]
  Plant response rating, Cocklebur: 100
[3]; [29]
  Plant response rating, Cocklebur: 100
[4]; [30]
  Blackgrass plant response rating (0 to 100 scale): 40
[4]; [27]
  Plant response rating, Blackgrass: 30
[4]; [28]
  Plant response rating, Blackgrass: 55
[4]; [29]
  Plant response rating, Blackgrass: 65
[5]; [27]
  Plant response rating, Oat, Wild: 35
[5]; [28]
  Plant response rating, Oat, Wild: 45
[5]; [29]
  Plant response rating, Oat, Wild: 55
[6]; [30]
  Bermudagrass plant response rating (0 to 100 scale): 95
[6]; [27]
  Plant response rating, Bermudagrass: 85
[6]; [28]
  Plant response rating, Bermudagrass: 100
[6]; [29]
  Plant response rating, Bermudagrass: 100
[7]; [27]
  Plant response rating, Morningglory: 75
[7]; [28]
  Plant response rating, Morningglory: 90
[7]; [29]
  Plant response rating, Morningglory: 100
[8]; [27]
  Plant response rating, Kochia: 20
[8]; [28]
  Plant response rating, Kochia: 75
[8]; [29]
  Plant response rating, Kochia: 80
[9]; [27]
  Plant response rating, Ragweed: 90
[9]; [28]
  Plant response rating, Ragweed: 100
[9]; [29]
  Plant response rating, Ragweed: 100
[10]; [27]
  Plant response rating, Johnsongrass: 98
[10]; [28]
  Plant response rating, Johnsongrass: 100
[10]; [29]
  Plant response rating, Johnsongrass: 100
[11]; [27]
  Plant response rating, Velvetleaf: 80
[11]; [28]
  Plant response rating, Velvetleaf: 95
[11]; [29]
  Plant response rating, Velvetleaf: 100
[12]; [30]
  Bromegrass, Downy plant response rating (0 to 100 scale): 30
[12]; [27]
  Plant response rating, Bromegrass, Downy: 20
[12]; [28]
  Plant response rating, Bromegrass, Downy: 45
[12]; [29]
  Plant response rating, Bromegrass, Downy: 50
[13]; [27]
  Plant response rating, Nutsedge, Yellow: 25
[13]; [28]
  Plant response rating, Nutsedge, Yellow: 75
[13]; [29]
  Plant response rating, Nutsedge, Yellow: 80
[14]; [27]
  Plant response rating, Soybean: 98
[14]; [28]
  Plant response rating, Soybean: 100
[14]; [29]
  Plant response rating, Soybean: 100
[15]; [27]
  Plant response rating, Wheat: 10
[15]; [28]
  Plant response rating, Wheat: 35
[15]; [29]
  Plant response rating, Wheat: 40
[16]; [27]
  Plant response rating, Chickweed: 90
[16]; [28]
  Plant response rating, Chickweed: 100
[16]; [29]
  Plant response rating, Chickweed: 100
[17]; [27]
  Plant response rating, Windgrass: 40
[17]; [28]
  Plant response rating, Windgrass: 60
[17]; [29]
  Plant response rating, Windgrass: 80
[18]; [27]
  Plant response rating, Canarygrass: 40
[18]; [28]
  Plant response rating, Canarygrass: 90
[18]; [29]
  Plant response rating, Canarygrass: 90

From patent publication US8952024B2, “Herbicidal pyrimidone derivatives” (E I du Pont de Nemours and Company, priority 2009, dated 2015)
